Test [1] concerns the target Mitogen-activated protein kinase 14 (Homo sapiens, UniProt Q16539). Set-up: species or system Escherichia coli.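 Note: inhibition of p38alpha enzyme activity in a biochemical kinase assay, with myelin basic protein serving as substrate; in other assays of this panel Not Active means under 50% inhibition at 10 µM.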
In test [2] the target is 5-hydroxytryptamine receptor 1B (Rattus norvegicus, UniProt P28564). The class given is cell membranes, Wistar, Cerebral cortex, Membrane. Note: in other assays of this panel Not Active means under 50% inhibition at 10 µM.
5-hydroxytryptamine receptor 1B, sequence (P28564 whole entry): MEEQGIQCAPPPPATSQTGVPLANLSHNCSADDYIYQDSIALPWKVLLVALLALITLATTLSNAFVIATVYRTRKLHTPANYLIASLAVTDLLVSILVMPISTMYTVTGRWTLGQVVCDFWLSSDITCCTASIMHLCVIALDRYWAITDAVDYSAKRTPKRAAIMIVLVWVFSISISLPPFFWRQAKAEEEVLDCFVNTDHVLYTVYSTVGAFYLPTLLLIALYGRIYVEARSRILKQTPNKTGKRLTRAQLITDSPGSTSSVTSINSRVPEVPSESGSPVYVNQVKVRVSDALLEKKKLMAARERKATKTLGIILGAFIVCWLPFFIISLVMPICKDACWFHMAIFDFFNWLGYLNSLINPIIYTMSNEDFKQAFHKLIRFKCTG
The target of a further test is T1, Substance-K receptor (Homo sapiens, UniProt P21452). Note: in other assays of this panel Not Active means under 50% inhibition at 10 µM.
T1 sequence (P21452 whole entry): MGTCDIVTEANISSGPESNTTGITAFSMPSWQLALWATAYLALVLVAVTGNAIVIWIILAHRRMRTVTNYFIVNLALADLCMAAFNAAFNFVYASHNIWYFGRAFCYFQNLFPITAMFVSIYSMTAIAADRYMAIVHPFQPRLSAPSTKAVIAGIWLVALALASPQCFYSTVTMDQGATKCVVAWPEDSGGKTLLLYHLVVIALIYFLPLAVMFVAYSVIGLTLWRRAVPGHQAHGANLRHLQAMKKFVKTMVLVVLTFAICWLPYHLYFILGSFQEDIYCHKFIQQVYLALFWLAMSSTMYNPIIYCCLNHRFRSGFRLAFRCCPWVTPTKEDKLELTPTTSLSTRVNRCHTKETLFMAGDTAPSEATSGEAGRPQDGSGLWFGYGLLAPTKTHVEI
The class given is cell membranes, CHO, Membrane. The note with it: cho.

Test [3] concerns the target 5-hydroxytryptamine receptor 2B (Homo sapiens, UniProt P41595). In kind it is cell membranes, CHO-K1, Membrane. Note: in other assays of this panel Not Active means under 50% inhibition at 10 µM.
The nature of test [4]: DRUGMATRIX: Glutamate, NMDA, Agonism radioligand binding (ligand: [3H] CGP-39653). The note with it: Not Active = under 50% inhibition at 10 µM. The class given is cell membranes, Rattus norvegicus, Wistar, Cerebral cortex, Membrane.
Test [5] deals with T2, Receptor-type tyrosine-protein phosphatase C (Homo sapiens, UniProt P08575).
T2 sequence (P08575 whole entry): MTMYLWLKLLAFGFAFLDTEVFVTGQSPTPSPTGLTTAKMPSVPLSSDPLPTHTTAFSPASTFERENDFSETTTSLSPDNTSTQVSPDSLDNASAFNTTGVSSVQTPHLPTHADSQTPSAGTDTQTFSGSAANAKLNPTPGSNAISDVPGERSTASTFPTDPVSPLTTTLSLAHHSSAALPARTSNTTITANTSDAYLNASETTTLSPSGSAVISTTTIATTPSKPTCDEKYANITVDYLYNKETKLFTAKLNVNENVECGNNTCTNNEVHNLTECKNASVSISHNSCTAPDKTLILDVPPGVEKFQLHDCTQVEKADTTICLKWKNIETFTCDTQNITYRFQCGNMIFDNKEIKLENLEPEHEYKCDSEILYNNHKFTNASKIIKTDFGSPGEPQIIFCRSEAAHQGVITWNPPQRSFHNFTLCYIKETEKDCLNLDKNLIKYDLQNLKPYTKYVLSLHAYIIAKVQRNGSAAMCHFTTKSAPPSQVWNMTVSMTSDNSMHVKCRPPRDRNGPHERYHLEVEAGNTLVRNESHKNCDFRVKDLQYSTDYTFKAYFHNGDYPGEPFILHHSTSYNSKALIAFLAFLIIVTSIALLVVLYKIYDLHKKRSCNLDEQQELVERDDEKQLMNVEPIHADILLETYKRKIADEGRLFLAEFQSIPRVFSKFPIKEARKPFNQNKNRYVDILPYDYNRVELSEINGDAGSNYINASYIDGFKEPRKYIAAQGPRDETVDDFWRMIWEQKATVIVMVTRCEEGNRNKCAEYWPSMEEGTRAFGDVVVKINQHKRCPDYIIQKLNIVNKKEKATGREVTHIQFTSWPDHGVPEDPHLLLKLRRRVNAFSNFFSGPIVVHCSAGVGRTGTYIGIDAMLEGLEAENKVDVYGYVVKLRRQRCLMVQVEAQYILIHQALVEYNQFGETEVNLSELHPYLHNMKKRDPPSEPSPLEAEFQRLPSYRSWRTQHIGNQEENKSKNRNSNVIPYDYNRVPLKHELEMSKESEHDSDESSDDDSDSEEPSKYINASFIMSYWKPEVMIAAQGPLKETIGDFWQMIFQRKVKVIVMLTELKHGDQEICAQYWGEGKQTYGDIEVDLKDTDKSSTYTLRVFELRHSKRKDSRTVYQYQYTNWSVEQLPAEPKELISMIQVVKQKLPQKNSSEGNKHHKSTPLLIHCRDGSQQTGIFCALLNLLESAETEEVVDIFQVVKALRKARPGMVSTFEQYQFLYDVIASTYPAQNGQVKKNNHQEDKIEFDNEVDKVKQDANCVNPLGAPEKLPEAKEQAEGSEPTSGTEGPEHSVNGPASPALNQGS
Set-up: species or system Escherichia coli.

For another test, the target named is T3, Glucocorticoid receptor (Homo sapiens, UniProt P04150). Note: in other assays of this panel Not Active means under 50% inhibition at 10 µM.
T3 sequence (P04150 whole entry): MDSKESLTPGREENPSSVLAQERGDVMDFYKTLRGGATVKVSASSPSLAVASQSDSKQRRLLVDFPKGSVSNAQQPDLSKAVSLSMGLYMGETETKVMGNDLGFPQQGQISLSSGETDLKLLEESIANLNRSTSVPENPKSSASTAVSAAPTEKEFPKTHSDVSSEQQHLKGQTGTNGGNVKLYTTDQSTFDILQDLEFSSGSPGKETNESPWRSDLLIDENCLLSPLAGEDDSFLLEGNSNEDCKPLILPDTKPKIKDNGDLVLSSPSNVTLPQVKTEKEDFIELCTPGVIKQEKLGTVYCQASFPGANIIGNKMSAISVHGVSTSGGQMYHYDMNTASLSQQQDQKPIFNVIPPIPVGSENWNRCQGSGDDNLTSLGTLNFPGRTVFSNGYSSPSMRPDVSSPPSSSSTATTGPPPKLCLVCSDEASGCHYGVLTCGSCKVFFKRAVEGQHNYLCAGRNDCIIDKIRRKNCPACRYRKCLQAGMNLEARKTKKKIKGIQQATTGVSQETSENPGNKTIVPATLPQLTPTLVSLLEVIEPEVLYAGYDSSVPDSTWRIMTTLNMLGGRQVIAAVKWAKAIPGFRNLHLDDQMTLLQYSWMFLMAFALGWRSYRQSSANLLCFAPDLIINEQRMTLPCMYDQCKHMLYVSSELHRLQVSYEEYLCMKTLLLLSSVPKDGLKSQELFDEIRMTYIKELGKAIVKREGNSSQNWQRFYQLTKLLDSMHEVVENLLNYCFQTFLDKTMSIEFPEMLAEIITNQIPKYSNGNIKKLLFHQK
As to conditions: hela s3.

The values below come from ChEMBL document CHEMBL1909046, “DrugMatrix in vitro pharmacology data”.

Mitogen-activated protein kinase 14, sequence (Q16539 whole entry): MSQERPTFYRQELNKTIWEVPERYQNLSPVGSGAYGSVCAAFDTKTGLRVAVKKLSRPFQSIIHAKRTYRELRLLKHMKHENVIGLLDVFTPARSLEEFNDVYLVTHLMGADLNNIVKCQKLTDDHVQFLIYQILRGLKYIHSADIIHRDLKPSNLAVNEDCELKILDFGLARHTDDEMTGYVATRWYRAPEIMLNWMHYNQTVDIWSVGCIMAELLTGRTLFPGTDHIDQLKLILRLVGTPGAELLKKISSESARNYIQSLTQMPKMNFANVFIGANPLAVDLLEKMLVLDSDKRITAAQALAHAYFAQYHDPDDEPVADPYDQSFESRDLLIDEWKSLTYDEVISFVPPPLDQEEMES
5-hydroxytryptamine receptor 2B, sequence (P41595 whole entry): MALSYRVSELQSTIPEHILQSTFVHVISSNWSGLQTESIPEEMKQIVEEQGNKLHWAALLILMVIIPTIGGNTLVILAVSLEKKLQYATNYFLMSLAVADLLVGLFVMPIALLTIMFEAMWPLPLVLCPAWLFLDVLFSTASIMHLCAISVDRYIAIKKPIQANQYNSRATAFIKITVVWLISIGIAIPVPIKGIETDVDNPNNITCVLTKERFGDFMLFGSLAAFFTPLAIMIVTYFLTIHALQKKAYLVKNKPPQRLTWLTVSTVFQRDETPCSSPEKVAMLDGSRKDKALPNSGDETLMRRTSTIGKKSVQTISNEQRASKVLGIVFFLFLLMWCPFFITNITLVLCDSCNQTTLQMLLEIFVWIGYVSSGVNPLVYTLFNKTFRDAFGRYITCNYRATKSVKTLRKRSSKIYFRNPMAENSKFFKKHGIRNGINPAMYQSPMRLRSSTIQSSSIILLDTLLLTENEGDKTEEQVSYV

Usually IC50 stands for the concentration at which inhibition is half-maximal. In general, Ki refers to a dissociation constant, usually derived from enzyme kinetics or from competition with a known ligand. Turning to `CC(=O)[C@@]1(O)CC[C@H]2[C@@H]3C[C@H](C)C4=CC(=O)CC[C@]4(C)[C@H]3CC[C@@]21C`, the IC50 result (in test [1]; in test [2]; against Substance-K receptor; in test [3] (cho-k1); in test [4]; in test [5]) was “Not Active” throughout. Besides, in test [4], the inhibition constant Ki result is given as “Not Active”.
Take `OCCN(CCO)c1nc(N2CCCCC2)c2nc(N(CCO)CCO)nc(N3CCCCC3)c2n1` [DIPYRIDAMOLE]: the 50% inhibitory concentration (IC50) entry (in test [1]; in test [2]; against Substance-K receptor; in test [3] (cho-k1); in test [4]; in test [5]) was “Not Active” in each case. In addition, the Ki result in test [4] is “Not Active”.
Turning to `O=NN(CCCl)C(=O)NC1CCCCC1` [LOMUSTINE], the IC50 entry (in test [1]; in test [2]; against Substance-K receptor; in test [3] (cho-k1); in test [4]; in test [5]) was “Not Active” throughout. The Ki entry in test [4] is reported as “Not Active”.
As to `Cn1ccnc1S` [METHIMAZOLE], the IC50 entry (in test [1]; in test [2]; against Substance-K receptor; in test [3] (cho-k1); in test [4]; in test [5]) was “Not Active” in each case. In addition, the Ki result in test [4] is recorded as “Not Active”.
Turning to `COc1c(C)c2c(c(O)c1C/C=C(\C)CCC(=O)O)C(=O)OC2` [MYCOPHENOLIC ACID], the IC50 entry (in test [1]; in test [2]; against Substance-K receptor; in test [3] (cho-k1); in test [4]; in test [5]) was “Not Active” throughout. In test [4], the Ki entry is recorded as “Not Active”.
For the compound `O=c1ncn2nc(Sc3ccc(F)cc3F)ccc2c1-c1c(Cl)cccc1Cl` [NEFLAMAPIMOD], the IC50 entry (in test [2]; on Substance-K receptor; against Glucocorticoid receptor; in test [3] (cho-k1); in test [4]; in test [5]) was “Not Active” in each case. Also, the Ki entry in test [4] is “Not Active”.
For `CO[C@H]1/C=C/O[C@@]2(C)Oc3c(C)c(O)c4c(O)c(c(/C=N/N5CCN(C)CC5)c(O)c4c3C2=O)NC(=O)/C(C)=C\C=C\[C@H](C)[C@H](O)[C@@H](C)[C@@H](O)[C@@H](C)[C@H](OC(C)=O)[C@@H]1C` [RIFAMPIN], the IC50 result (in test [1]; in test [2]; against Substance-K receptor; in test [3] (cho-k1); in test [4]; in test [5]) was “Not Active” in each case. The Ki result in test [4] is given as “Not Active”.
With `Cc1noc(NS(=O)(=O)c2ccc(N)cc2)c1C` [SULFISOXAZOLE], the IC50 entry (in test [1]; in test [2]; against Substance-K receptor; in test [3] (cho-k1); in test [4]; in test [5]) was “Not Active” in each case. Besides, the inhibition constant (Ki) result in test [4] is recorded as “Not Active”.
Take `CSc1ccc(/C=C2/C(C)=C(CC(=O)O)c3cc(F)ccc32)cc1` [SULINDAC SULFIDE]: the IC50 entry (in test [1]; in test [2]; against Substance-K receptor; in test [3] (cho-k1); in test [4]; in test [5]) was “Not Active” in each case. Moreover, the Ki result in test [4] was “Not Active”.
Take `Nc1c2c(nc3ccccc13)CCCC2` [TACRINE]: the IC50 result (in test [1]; in test [2]; at Substance-K receptor; in test [3] (cho-k1); in test [4]; in test [5]) was “Not Active” throughout. Moreover, the Ki result in test [4] was “Not Active”.
In the case of `CC(C)N1CCN(c2ccc(OCC3COC(Cn4cncn4)(c4ccc(Cl)cc4Cl)O3)cc2)CC1` (centres undefined) [TERCONAZOLE], the IC50 result in test [1] was “Not Active”; in test [2] (read-out: IC50), 89.9 µM; against Substance-K receptor it was “Not Active”; in test [3] (cho-k1), “Not Active”; in test [4], “Not Active”; in test [5] it was “Not Active”. In addition, the Ki in test [2] (read-out: Ki) was 40.9 µM; in test [4] it was “Not Active”.
As to `NC[C@H]1CC[C@H](C(=O)O)CC1` [TRANEXAMIC ACID], the IC50 entry (in test [1]; in test [2]; against Substance-K receptor; in test [3] (cho-k1); in test [4]; in test [5]) was “Not Active” each time. Also, the Ki result in test [4] is on record as “Not Active”.
Consider `CC1(C)O[C@@H]2C[C@H]3[C@@H]4CCC5=CC(=O)C=C[C@]5(C)[C@@]4(F)[C@@H](O)C[C@]3(C)[C@]2(C(=O)CO)O1` [TRIAMCINOLONE ACETONIDE], for which the half-inhibitory concentration (IC50) result (in test [1]; in test [2]; against Substance-K receptor; in test [3] (cho-k1); in test [4]; in test [5]) was “Not Active” in each case. Further, in test [4], the Ki entry was “Not Active”.
With `NS(=O)(=O)c1cc2c(cc1Cl)NC(C(Cl)Cl)NS2(=O)=O` (centres undefined) [TRICHLORMETHIAZIDE], the concentration for half-maximal inhibition (IC50) entry (in test [1]; in test [2]; on Substance-K receptor; in test [3] (cho-k1); in test [4]; in test [5]) was “Not Active” each time. Besides, in test [4], the Ki result is reported as “Not Active”.
In the case of `Cc1c(C)c2c(c(C)c1O)CCC(C)(COc1ccc(CC3SC(=O)NC3=O)cc1)O2` (centres undefined) [TROGLITAZONE], the IC50 entry was “Not Active” in test [1]; “Not Active” in test [2]; “Not Active” on Substance-K receptor; 1.31 µM in test [3] (read-out: IC50); “Not Active” in test [4]; “Not Active” in test [5]. In addition, the results for the Ki in test [3] (read-out: Ki) and in test [4] were 0.835 µM and “Not Active”, respectively.
For the compound `N#CC(C#N)=Cc1ccc(O)c(O)c1` [TYRPHOSTIN 23], the IC50 result (in test [1]; in test [2]; against Substance-K receptor; in test [3] (cho-k1); in test [4]; in test [5]) was “Not Active” throughout. For the same compound, in test [4], the Ki entry is listed as “Not Active”.
